# Legend:
# Format in all cases: cell-based
# [1] = system: p-p70 S6 Kinase (Thr389) in MCF-7 cells; assay: AlphaLISA Ultra pS6K1 assay; settings: Homo sapiens, 1.5 h; MCF7 cells, 90 min
# Procedure: Example 55: AlphaLISA Ultra pS6K1 Assay
# (§1) Assay Protocol: • 1. Seed MCF-7 cells in Corning 3701 plate and incubate for 20˜24 hour. 12,000˜16,000 cells will be seeded in 36 μL medium per well. • 2. Change the culture medium with fresh medium and incubate for another 2 hours. • 3. Add 12 μL (4×) compounds into the cell plate by HAMILTON. Final DMSO concentration is 0.5%. Incubate for 90 minutes. • 4. Aspirate 38 μL by HAMILTON, 10 μL rest per well. • 5. Add 10 μL 2× lysis buffer using HAMILTON; total volume in wells is 20 μL. Allow cells to shake for 30 min. Cover plate by plastic foil and store plate at −80° C. up to analysis. • 6. Thaw cell lysate at RT and transfer 10 μL lysate to assay plate (Optiplate-384). • 7. Add 5 μL acceptor beads into assay plate and incubation for 2 hours • 8. Add 5 μL donor beads and incubation for 2 hours • 9. Count the plate by EnSpire Multimode Plate Reader
# [2] = system: p-Akt 1/2/3 (Ser473) in MCF-7 cells; assay: AlphaLISA Ultra pAKT assay; settings: Homo sapiens, 1.5 h; MCF7 cells, 90 min
# Procedure: Example 56: AlphaLISA Ultra pAKT Assay
# as §1, with “1.” for “1. Seed”, “16,000˜20,000” for “12,000˜16,000”, “90 minutes.” for “2 hours.”, “Incubate for 90 minutes. • 4.” left out
# mTORC1 over mTORC2 = mTORC1 over mTORC2 selectivity by comparing pS6K1 and pAKT IC50; settings: by comparing pS6K1 and pAKT IC50, 90 min
# Procedure: as §1, with “Reader […]” for “Reader”
# Compounds that are not selective by comparing pS6K1 and pAKT IC50 by kinase assays are indicated by “NO” in the “mTORC1 selective @ 90 min” column of Table 4. […] Compounds that are not selective at the 24 hrs mark are indicated by “NO” in the “mTORC1 selective @ 24 hrs” column of Table 4. “N/A” stands for “not assayed” and “N/C” stands for “not calculated”.
smiles,measurement,setting,value
"CO[C@@H]1C[C@H](C[C@@H](C)[C@@H]2CC(=O)[C@H](C)/C=C(\C)[C@@H](O)[C@@H](OC)C(=O)[C@H](C)C[C@H](C)/C=C/C=C/C=C(\C)C(OCCOC3COC3)C[C@@H]3CC[C@@H](C)[C@@](O)(O3)C(=O)C(=O)N3CCCC[C@H]3C(=O)O2)CC[C@H]1OC(=O)NCCN1CCOCC1 (stereo partly drawn) [I-19, [(42S,44R,46R)-4-[(2R)-2-[(27E,29E,31E,32E,38R,39S,40R,41R,43S,45S,48S,50R,51R,61R)-50,61-dihydroxy-51-methoxy-38,39,40,41,52,53-hexamethyl-47-[2-(oxetan-3-yloxy)ethoxy]-54,55,56,57,58-pentaoxo-75,76-dioxa-64-azatricyclohexatriaconta-27,29,31(52),32(53)-tetraen-48-yl]propyl]-46-methoxy-44-cyclohexyl] N-(2-morpholinoethyl)carbamate]",IC50,[1],< 1 nM
same,IC50,[2],≥ 1000 nM
same,mTORC1 selective @ 90 min,mTORC1 over mTORC2,Yes
CO[C@@H]1/C(C)=C/[C@@H](C)C(=O)C[C@@H]([C@H](C)C[C@@H]2CC[C@@H](OC)[C@H](OC)C2)OC(=O)[C@@H]2CCCCN2C(=O)C(=O)[C@]2(O)O[C@@H](CC[C@H]2C)CC(OCCOCCN)/C(C)=C/C=C/C=C/[C@@H](C)C[C@@H](C)C(=O)[C@@H]1OC (stereo partly drawn) [I-22],IC50,[1],100 to 1000 nM
same,IC50,[2],≥ 1000 nM
same,mTORC1 selective @ 90 min,mTORC1 over mTORC2,Yes
"CO[C@@H]1/C(C)=C/[C@@H](C)C(=O)C[C@@H]([C@H](C)C[C@@H]2CC[C@@H](OCCCO)[C@H](OC)C2)OC(=O)[C@@H]2CCCCN2C(=O)C(=O)[C@]2(O)O[C@@H](CC[C@H]2C)C[C@@H](OCCOC2COC2)/C(C)=C/C=C/C=C/[C@@H](C)C[C@@H](C)C(=O)[C@@H]1OC [I-44, (23E,25E,27E,28E,35R,36S,37R,38R,40S,42S,44R,45S,47R,48R,57R)-47,57-dihydroxy-45-[(1R)-2-[(1S,3R,4R)-4-(3-hydroxypropoxy)-3-methoxy-cyclohexyl]-1-methyl-ethyl]-48-methoxy-35,36,37,38,49,50-hexamethyl-44-[2-(oxetan-3-yloxy)ethoxy]-68,69-dioxa-58-azatricyclohexatriaconta-23,25,27(49),28(50)-tetraene-51,52,53,54,55-pentone]",IC50,[1],1 to 10 nM
same,IC50,[2],≥ 1000 nM
same,mTORC1 selective @ 90 min,mTORC1 over mTORC2,Yes
"COCCOCCO[C@@H]1C[C@@H]2CC[C@@H](C)[C@@](O)(O2)C(=O)C(=O)N2CCCC[C@H]2C(=O)O[C@H]([C@H](C)C[C@@H]2CC[C@@H](OC(F)F)[C@H](OC)C2)CC(=O)[C@H](C)/C=C(\C)[C@@H](O)[C@@H](OC)C(=O)[C@H](C)C[C@H](C)/C=C/C=C/C=C/1C [I-5, (22E,24E,26E,27E,33R,34S,35R,36R,38S,40S,42R,43S,44R,45R,55R)-43-[(1R)-2-[(1S,3R,4R)-4-(difluoromethoxy)-3-methoxy-cyclohexyl]-1-methyl-ethyl]-44,55-dihydroxy-45-methoxy-42-[2-(2-methoxyethoxy)ethoxy]-33,34,35,36,46,47-hexamethyl-64,65-dioxa-56-azatricyclohexatriaconta-22,24,26(46),27(47)-tetraene-48,49,50,51,52-pentone]",IC50,[1],10 to 100 nM
same,IC50,[2],≥ 1000 nM
same,mTORC1 selective @ 90 min,mTORC1 over mTORC2,Yes
"CO[C@@H]1C[C@H](C[C@@H](C)[C@@H]2CC(=O)[C@H](C)/C=C(\C)[C@@H](O)[C@@H](OC)C(=O)[C@H](C)C[C@H](C)/C=C/C=C/C=C(\C)C(OCCOC3COC3)C[C@@H]3CC[C@@H](C)[C@@](O)(O3)C(=O)C(=O)N3CCCC[C@H]3C(=O)O2)CC[C@H]1OCCCN1CCN(C)CC1 (stereo partly drawn) [I-15, (28E,30E,32E,33E,40R,41S,42R,43R,45S,47S,50S,52R,53R,62R)-52,62-dihydroxy-53-methoxy-50-[(1R)-2-[(1S,3R,4R)-3-methoxy-4-[3-(4-methylpiperazin-1-yl)propoxy]cyclohexyl]-1-methyl-ethyl]-40,41,42,43,54,55-hexamethyl-49-[2-(oxetan-3-yloxy)ethoxy]-74,75-dioxa-65-azatricyclohexatriaconta-28,30,32(54),33(55)-tetraene-56,57,58,59,60-pentone]",IC50,[1],1 to 10 nM
same,IC50,[2],≥ 1000 nM
same,mTORC1 selective @ 90 min,mTORC1 over mTORC2,Yes
